Data on four molecules can be found in patent publication US7479560B2, “Creatine pyroglutamic acid salts and methods for their production and use in individuals” (New Cell Formulations, Ltd., priority 2006, dated 2009).

Like-named read-outs stand apart in the source and are kept apart here.

Data set [1] is described as follows: pH measurement of 2 g of substance in 75 ml H2O.
The test system of the next data set is cognitive function. Particulars: cited from earlier work.
Data set [2] has as its system age-associated memory impairment. Conditions: humans; cited from earlier work.
Data set [3] is classed as physicochemical. Particulars: for dissolution upon visual inspection: 2 g in 75 ml distilled water, stirred mechanically ~5 min.
The next data set concerns cerebral ischemia. Conditions: oral administration to experimental animals; cited from earlier work.

As for `O=C1CC[C@@H](C(=O)O)N1` [pyroglutamic acid, L-pyroglutamic acid], in data set [1], the “pH of 2 g in 75 ml H2O” value is about 2.00. Also, in the data set with cognitive function, the “cognitive function in rats” value was “improve”. The age-associated memory impairment entry in data set [2] is listed as “improves”.

Regarding `CN(CC(=O)O)C(=N)N.O` [creatine monohydrate], the “pH of 2 g in 75 ml H2O” value in data set [1] is recorded as about 7.00. Further, the “dissolution upon visual inspection” value in data set [3] (Experiment 1) is reported as “did not dissolve very well”. In addition, in data set [3] (Experiment 1, creatine monohydrate 2 g in 75 ml water, some pyroglutamic acid added), the “dissolution after lowering pH by adding pyroglutamic acid” value is recorded as “dissolved”. Also, the “dissolution after 30 min of stirring” value in data set [3] (Experiment 2, 2 g in 75 ml distilled H2O, 30 min stirring) is “still a considerable amount of solids that did not dissolve”.

As to `CN(CC(=O)O)C(=N)N` [Creatine, N-methyl-N-guanyl Glycine], in the data set on cerebral ischemia, the ischemic brain infarction entry is “remarkable reduction”.

As to “(2-(1-methylguanidino)acetyl)oxonium (S)-5-oxopyrrolidine-2-carboxylate [creatine pyroglutamate]”, the “pH of 2 g in 75 ml H2O” value in data set [1] (listed as product obtained in Experiment 2) is recorded as 3.09; in data set [1] (listed as unwashed product) it was about 3.00. The “dissolution upon visual inspection” value in data set [3] (Experiment 1) is on record as “dissolved completely”. In addition, in data set [3] (Experiment 2, 2 g in 75 ml distilled H2O, stirred), the “time to complete dissolution of crystals” value is at most 5 min.
